From patent US9492368B2, “External preparation for skin” (HAYASHIBARA CO., LTD., priority 2011, dated 2016) come the findings set out here.

The nature of the data set: Solubility in deuterium water. It counts as physicochemical. On the procedure: For reference, the above nigerosyl adenosine was observed as a minor peak with a retention time of about 22 to 23 min between the elution peak of adenosine and that of 3′-glucosyladenosine other than the elution peaks of 5′- and 3′-glucosyladenosines and adenosine. When the fraction corresponding to such a minor peak was collected and subjected to mass spectrum (MS) analysis in usual manner, it was calculated to have a molecular weight of […] and judged to be a compound composed of two molecules of glucose bound to adenosine. Using the collected fraction and based on the chemical shift (see Table 13) of the carbons and protons of the fraction on MNR analysis under the following conditions, the substance contained in the fraction was identified as 5′-nigerosyladenosine (α-D-glucopyranosyl-(1→3)-α-D-glucopyranosyl-(1→5′)-adenosine; 5′-α-nigerosyladenosine). Since 5′-nigerosyladenosine dissolves in deuterium water in an amount of at least 6 w/v %, it has a higher solubility in aqueous media than 3′-glucosyladenosine. The carbon chemical shifts of adenosine and nigerose were obtained from the spectrum data base of organic compounds opened by The National Institute of Advanced Industrial Science and Technology (AIST) (SDBS; http://riodb01.ibase.aist.go.jp/sdbs/cgi-bin/direct_frame_top.cgi).

SMILES strings stand for the structures.

`Nc1ncnc2c1ncn2[C@@H]1O[C@H](CO[C@H]2O[C@H](CO)[C@@H](O)[C@H](O[C@H]3O[C@H](CO)[C@@H](O)[C@H](O)[C@H]3O)[C@H]2O)[C@@H](O)[C@H]1O` [5′-nigerosyladenosine, α-D-glucopyranosyl-(1→3)-α-D-glucopyranosyl-(1→5′)-adenosine]: the “Amount that dissolves in deuterium water” value is reported as “at least 6 w/v %”.
